Key:
Felis catus = organism: Felis catus; assay: Percentage inhibition of depressor response in cat was determined; type: functional; set-up: concentration or dose not given beside the values
[1] = biological target: Adrenergic receptor beta (Rattus norvegicus) (UniProt P18090+P10608+P26255); assay: In vivo beta-adrenoceptor blocking potency measured by blockade of the isoproterenol tachycardia response in rat; type: functional, organism-based

SMILES	Inhibition (Felis catus) [%]	ED50 [1] [mg/kg]
CCC(=O)NCCNCC(O)c1ccccc1 (stereo unspecified)	46	0.07
O=C(Cc1ccc(Cl)cc1)NCCNCC(O)c1ccccc1 (stereo unspecified)	3	0.7
COc1ccc(CC(=O)NCCNCC(O)c2ccccc2)cc1 (stereo unspecified)	24	0.32
CC(CNC(=O)Cc1ccccc1Cl)NCC(O)c1ccccc1 (stereo unspecified)	19	0.03
CC(C)C(=O)NCCNCC(O)c1ccc(N)cc1 (stereo unspecified)	69	0.6
CCCCCC(=O)NCCNCC(O)c1ccccc1 (stereo unspecified)	8	1.4
CCC(=O)NCCNCC(O)c1ccc(C)cc1 (stereo unspecified)	–	0.5
O=C(COc1ccccc1)NCCNCC(O)c1ccccc1 (stereo unspecified)	–	1
CC(=O)Nc1ccc(OCC(O)CNC(C)C)cc1 (stereo unspecified) [PRACTOLOL]	8	–
CC(C)C(=O)NCCNCC(O)c1ccccc1 (stereo unspecified)	27	0.7
CC(O)c1ccc(OCC(=O)NCCNCC(O)c2ccccc2)cc1 (stereo unspecified)	–	1.6
Nc1ccc(CC(=O)NCCNCC(O)c2ccccc2)cc1 (stereo unspecified)	–	2.5
CC(CNCC(O)c1ccccc1)NC(=O)Cc1ccccc1 (stereo unspecified)	–	8
COc1ccc(C(O)CNCCNC(=O)C(C)C)cc1 (stereo unspecified)	0	0.3
CC(CNC(=O)C1CCCCC1)NCC(O)c1ccccc1 (stereo unspecified)	19	0.11
CC(C)C(=O)NCCNCC(O)c1ccc(Br)cc1 (stereo unspecified)	–	1.6
COc1ccc(CC(=O)NCCNCC(O)c2ccccc2)cc1OC (stereo unspecified)	–	7
O=C(NCCNCC(O)c1ccccc1)C1CCCC1 (stereo unspecified)	8	0.42
CCOC(=O)NCCNCC(O)c1ccccc1 (stereo unspecified)	–	2.8
O=C(COc1ccc(Cl)cc1)NCCNCC(O)c1ccccc1 (stereo unspecified)	36	2.5
CC(=O)Nc1ccc(CC(=O)NCCNCC(O)c2ccccc2)cc1 (stereo unspecified)	–	1.2
NC(=O)c1ccccc1OCC(=O)NCCNCC(O)c1ccccc1 (stereo unspecified)	–	5.2
O=C(NCCNCC(O)c1ccccc1)c1ccc(O)cc1 (stereo unspecified)	10	9
O=C(CO)NCCNCC(O)c1ccccc1 (stereo unspecified)	–	0.3
CC(C)C(=O)NCC(C)(C)NCC(O)c1ccccc1 (stereo unspecified)	9	0.27
CC(C)CC(=O)NCCNCC(O)c1ccccc1 (stereo unspecified)	25	0.72

SMILES	Inhibition (Felis catus) [%]	ED50 [1] [mg/kg]
CC(C)C(=O)NCCNCC(O)c1ccc(NS(C)(=O)=O)cc1 (stereo unspecified)	–	5.2
O=C(NCCNCC(O)c1ccccc1)C(F)(F)F (stereo unspecified)	–	0.1
CCCCNC(=O)NCCNCC(O)c1ccccc1 (stereo unspecified)	54	0.5
O=C(Cc1ccccc1)NCCNCC(O)c1ccccc1Cl.O=C(O)/C=C/C(=O)O (stereo unspecified)	45	0.6
O=C(Cc1ccccc1)NCCNCC(O)c1ccccc1 (stereo unspecified)	6	0.38
O=S(=O)(Cc1ccccc1)NCCNCC(O)c1ccccc1 (stereo unspecified)	0	2
CCC(C)NCC(O)c1ccc2c(c1)CCCC2.Cl (stereo unspecified)	47	–
O=C(NCCNCC(O)c1ccccc1)Nc1ccccc1 (stereo unspecified)	0	2.9
CC(=O)NCCNCC(O)c1ccccc1 (stereo unspecified)	50	0.08
CC(C)C(=O)NCCNCC(O)c1ccc([N+](=O)[O-])cc1 (stereo unspecified)	0	10
C=CCNC(=O)NCCNCC(O)c1ccccc1 (stereo unspecified)	0	0.26
CCCC(=O)NCCNCC(O)c1ccccc1 (stereo unspecified)	0	0.45
CC(C)C(=O)NCCNCC(O)c1ccc(Cl)cc1Cl (stereo unspecified)	–	0.75
Cl.O=C(NCCNCC(O)c1ccccc1)C1CCCCC1 (stereo unspecified)	0	0.16
CC(C)NCC(O)c1ccc(NS(C)(=O)=O)cc1 (stereo unspecified) [SOTALOL]	85	–
O=S(=O)(NCCNCC(O)c1ccccc1)c1ccccc1 (stereo unspecified)	27	1
N#Cc1ccc(OCC(=O)NCCNCC(O)c2ccccc2)cc1 (stereo unspecified)	–	0.7
O=[N+]([O-])c1ccccc1S(=O)(=O)NCCNCC(O)c1ccccc1 (stereo unspecified)	23	2.5
CC(C)(CNC(=O)Cc1ccccc1)NCC(O)c1ccccc1.O=C(O)/C=C/C(=O)O (stereo unspecified)	28	0.1
CC(CNC(=O)Cc1ccccc1)NCC(O)c1ccccc1 (stereo unspecified)	36	0.1
CCCS(=O)(=O)NCCNCC(O)c1ccccc1 (stereo unspecified)	0	0.5
COCC(=O)NCCNCC(O)c1ccccc1 (stereo unspecified)	44	0.4
C=CCOc1ccccc1OCC(=O)NCCNCC(O)c1ccccc1 (stereo unspecified)	–	5.8
CC(=O)c1ccc(OCC(=O)NCCNCC(O)c2ccccc2)cc1 (stereo unspecified)	–	0.6
O=C(NCCNCC(O)c1ccccc1)c1ccccc1 (stereo unspecified)	–	10

— ChEMBL document CHEMBL1121381, “Beta-adrenergic blocking agents. 19. 1-Phenyl-2-[[(substituted-amido)alkyl]amino]ethanols” (1980)
